Reference: US20250290014A1, “DETERGENT COMPOSITION” (Saraya Co., Ltd., priority 2022, published 2025)

System: human three-dimensional cultured epidermis model
Experiment: Skin irritation of fatty acid alkali metal salts, OECD TG439 (Experimental Example 3)
Assay type: cell-based
Details: 0.1 M fatty acid aqueous solution, 25 μL, 15 minutes exposure, N=3; ≤50% viability irritating
Description: The skin irritation of alkali metal salts of various fatty acids (potassium laurate, potassium myristate, potassium palmitate, and potassium oleate) was evaluated by the following method based on OECD Test Guideline TG439. […]

SMILES: CCCCCCCCCCCC(=O)[O-].[K+] [lauric acid salt, potassium laurate]
- Skin irritation determination from cell viability (FIG. 3): irritating
